Reference: patent publication US20260200849A1, “CATIONIC LIPIDS AND PREPARATION METHOD THEREOF” (RiboX Therapeutics HK Limited, priority 2024, published 2026)

Experiments:
[1] = LNP size and polydispersity index (PDI) by dynamic light scattering (Zetasizer); type: physicochemical; conditions: for Size (nm): Formulation No. 001 (Ionizable lipid:DSPC:cholesterol:DMG-PEG2000 = 50:10:38.5:1.5, N/P 6), RNA No. 331; for PDI: Formulation No. 001, RNA No. 331
Method: (§1) The LNP size and polydispersity index (PDI), determined by dynamic light scattering (DLS), and zeta potential were measured by a Zetasizer machine (Malvern). RNA concentration and encapsulation efficacy (EE %) were analyzed by the Quant-IT Ribogreen kit by calculating the percentage encapsulation at 100%—(RNA-LNPs/RNA-LNPs with Triton X-100).

[2] = RNA encapsulation efficacy (EE %) by Quant-IT Ribogreen kit; type: physicochemical; conditions: LNP, Formulation No. 001, RNA No. 331
Method: as §1

Hep G2 cells [3] = test: In vitro expression: luciferase activity in Hep G2 cells transfected with RNA-LNPs; type: cell-based; conditions: Formulation No. 001, RNA No. 331 (firefly-luciferase), 100 ng/mL RNA-LNPs, 72 hours post transfection
Method: 2E5 Hep G2 cells were transfected with 100 ng/mL of RNA-LNPs encoding for firefly-luciferase. At 72 hours post transfection, the cells were washed and lysed. The luciferase expression (2-well repeat) was determined in the cell lysates with the luciferase assay reagent kit (Promega), according to the kit protocol, luciferase activity was measured by a luminometer.

Hep G2 cells [4] = test: In vitro toxicity: Hep G2 cell viability by CellTiter-Glo; type: cell-based; conditions: Formulation No. 001, RNA No. 331, 1 μg/mL RNA-LNPs, 72 hours post transfection, cell only = 100%
Method: 2E5 Hep G2 cells were transfected with 1 μg/mL RNA-LNPs. At 72 hours post transfection, cell viability (2-well repeat) was determined with the CellTiter-Glo® reagent kit, according to the kit protocol, measured by a luminometer. Cell only as control (100%).
The cell viability was calculated according to the following formula: […]

Balb/c mice = test: In vivo expression by IV, 0.05 mg/kg luciferase RNA-LNPs, IVIS luminescence; conditions: Formulation No. 001, RNA No. 331; female Balb/c mice, 0.05 mg*kg−1 intravenous, 24-hours post injection
Method: (§2) 7-8 week old, female Balb/c mice (N=3) were injected with 0.05 mg*kg−1 of RNA-LNPs encoding for firefly-luciferase by intravenous injection. At 24- and 72-hours post injection, animals were intraperitoneally injected with 15 mg/mi of Luciferin substrate and whole-body luminescence was determined by a bioluminescent in vivo imaging system (IVIS).
as §2, with “24-hours” for “24- and 72-hours”, “mg/ml” for “mg/mi”, “whole-body/liver/spleen” for “whole-body”

MCP-1 = test: In vivo tolerability by IV: serum MCP-1 by Luminex; set-up: species or system C57BL/6J mice; conditions: Formulation No. 001, RNA No. 331, male C57BL/6J mice, 1.0 mg*kg/1 intravenous; for MCP-1 at 2 h: 2 hours post injection; for MCP-1 at 24 h: 24 hours post injection
Method: (§3) 6-8 week old, male C57BL/6J mice (N=3) were injected with 1.0 mg*kg/1 of RNA-LNPs encoding for firefly-luciferase by intravenous injection. At 2- and 24-hours post injection, about 40 μL blood was harvested and immediately added to the procoagulant containing tube. Stand for 30 min at room temperature and then centrifuged at 2500 g×10 min to obtain serum. About 15 μL serum samples were aliquoted for cytokine (MCP-1 and IL-6) detection by Luminex (ProcartaPlex Mouse 2-plex, Thermo). PBS group as negative control.
as §3, with “mg*kg−1” for “mg*kg/1”

IL-6 = test: In vivo tolerability by IV: serum IL-6 by Luminex; set-up: species or system C57BL/6J mice; conditions: Formulation No. 001, RNA No. 331, male C57BL/6J mice, 1.0 mg*kg/1 intravenous; for IL-6 at 2 h: 2 hours post injection; for IL-6 at 24 h: 24 hours post injection
Method: as §3
as §3, with “mg*kg−1” for “mg*kg/1”

C57BL/6J mice = test: In vivo expression by IV, 1.0 mg/kg luciferase RNA-LNPs, whole-body and organ IVIS luminescence; conditions: Formulation No. 001, RNA No. 331; male C57BL/6J mice, 1.0 mg*kg−1 intravenous, 24-hours post injection
Method: (§4) 6-8 week old, male C57BL/6J mice (N=3) were injected with 1.0 mg*kg−1 of RNA-LNPs encoding for firefly-luciferase by intravenous injection. At 24-hours post injection, animals were intraperitoneally injected with 15 mg/ml of Luciferin substrate and whole-body/liver/spleen/kidney/small intestine/large intestine luminescence were determined by a bioluminescent in vivo imaging system (IVIS).
as §4, with “mg/nil” for “mg/ml”

Compound	Size (nm) [1]	PDI [1]	EE (%) [2]	In vitro Expression (Mean) (Hep G2 cells [3])	In vitro cell viability (%) (Mean) (Hep G2 cells [4])	Liver (p/s) (Mean) (Balb/c mice)	Spleen (p/s) (Mean) (Balb/c mice)	Whole body (p/s) (Mean) (Balb/c mice)	MCP-1 at 2 h (MCP-1)	MCP-1 at 24 h (MCP-1)	IL-6 at 2 h (IL-6)	IL-6 at 24 h (IL-6)	Kidney (p/s) (C57BL/6J mice)	Large intestine (p/s) (C57BL/6J mice)	Liver (p/s) (C57BL/6J mice)	Small intestine (p/s) (C57BL/6J mice)	Spleen (p/s) (C57BL/6J mice)	Whole body (p/s) (C57BL/6J mice)
CCCCCCCCC(CCCCCC)C(=O)OCCCCCCCCOC(=O)NC(COC(=O)NCCN1CCCCCC1)C(=O)OCCCCCCCCOC(=O)C(CCCCCC)CCCCCCCC (stereo not drawn) [Lipid 889]	61.64 nm	0.02	95.41%	2.46E+05	91.21%	1.70E+08 p/s	8.56E+07 p/s	1.04E+09 p/s	760 pg/mL	286 pg/mL	7.62 pg/mL	4.69 pg/mL	3.47E+07 p/s	2.12E+08 p/s	5.79E+09 p/s	1.04E+09 p/s	2.95E+08 p/s	3.48E+09 p/s
CCCCC/C=C\C/C=C\CCCCCCCCOC(=O)NC(COC(=O)NCCNC)C(=O)OCCCCCC(=O)OCC(CCCCCCCC)CCCCCCCCCC (stereo not drawn) [Lipid 907]	83.82 nm	0.02	98.30%	2.56E+04	97.33%	1.46E+08 p/s	3.43E+07 p/s	1.18E+09 p/s	1020 pg/mL	81.5 pg/mL	14 pg/mL	2.35 pg/mL	5.43E+06 p/s	3.94E+07 p/s	1.91E+08 p/s	3.03E+08 p/s	5.98E+07 p/s	8.99E+08 p/s
CCCCCCCCCCCOC(=O)NC(COC(=O)NCCN1CCCCC1)C(=O)OCCCCCCCC(=O)OC(CCCCCCCC)CCCCCCCC (stereo not drawn) [Lipid 914]	70.33 nm	0.04	87.49%	1.56E+06	79.98%	3.77E+08 p/s	5.60E+07 p/s	1.19E+09 p/s	452 pg/mL	148 pg/mL	4.6 pg/mL	2.77 pg/mL	1.72E+07 p/s	4.60E+07 p/s	1.75E+09 p/s	4.42E+08 p/s	2.11E+08 p/s	2.46E+09 p/s
CCCCC/C=C\C/C=C\CCCCCCCCOC(=O)C(COC(=O)NCCN1CCCCC1)NC(=O)OCCCCCCCCOC(=O)C(CCCCCC)CCCCCCCC (stereo not drawn) [Lipid 918]	69.23 nm	0.01	93.47%	1.25E+06	85.92%	4.14E+08 p/s	7.74E+07 p/s	1.21E+09 p/s	880 pg/mL	300 pg/mL	9.3 pg/mL	4.73 pg/mL	1.99E+07 p/s	8.43E+07 p/s	4.67E+09 p/s	6.30E+08 p/s	3.95E+08 p/s	5.08E+09 p/s
CCCCC/C=C\C/C=C\CCCCCCCCOC(=O)C(COC(=O)NCCN1CCCCCC1)NC(=O)OCCCCCCCCOC(=O)C(CCCCCC)CCCCCCCC (stereo not drawn) [Lipid 919]	66.17 nm	0.02	96.20%	4.10E+05	82.59%	5.47E+08 p/s	2.28E+08 p/s	1.86E+09 p/s	1290 pg/mL	256 pg/mL	25.8 pg/mL	5.07 pg/mL	1.88E+07 p/s	1.29E+08 p/s	3.54E+09 p/s	6.16E+08 p/s	6.74E+08 p/s	6.01E+09 p/s
CCCCCCCCCCCOC(=O)CCCCCOC(=O)C(COC(=O)NCCN1CCCCC1)NC(=O)OCCCCCCCCOC(=O)C(CCCCCC)CCCCCCCC (stereo not drawn) [Lipid 923]	81.29 nm	0.03	88.91%	7.34E+05	88.59%	4.09E+08 p/s	5.03E+07 p/s	1.57E+09 p/s	639 pg/mL	75 pg/mL	11.9 pg/mL	2.37 pg/mL	5.13E+06 p/s	5.94E+07 p/s	1.44E+09 p/s	3.01E+08 p/s	3.85E+08 p/s	2.42E+09 p/s
CCCCCCCCC(CCCCCC)C(=O)OCCCCCCCCOC(=O)NC(COC(=O)NCCN1CCCCC1)C(=O)OCCCCCCCCCCC(=O)OCCCCCC (stereo not drawn) [Lipid 928]	75.43 nm	0.01	87.36%	4.72E+05	95.03%	2.35E+08 p/s	4.80E+07 p/s	9.65E+08 p/s	574 pg/mL	74.9 pg/mL	11.9 pg/mL	30.5 pg/mL	8.93E+06 p/s	2.23E+07 p/s	2.41E+09 p/s	1.61E+08 p/s	3.25E+08 p/s	2.17E+09 p/s
CCCCCCCCC(CCCCCC)C(=O)OCCCCCCCCOC(=O)NC(COC(=O)NCCN1CCCCCC1)C(=O)OCCCCCCCCCCC(=O)OCCCCCC (stereo not drawn) [Lipid 929]	67.82 nm	0.01	95.55%	2.24E+05	100.37%	2.99E+08 p/s	5.00E+07 p/s	1.02E+09 p/s	783 pg/mL	58.6 pg/mL	14.7 pg/mL	2.1 pg/mL	2.14E+07 p/s	9.97E+07 p/s	3.67E+09 p/s	3.16E+08 p/s	4.12E+08 p/s	2.83E+09 p/s
